IC50 and EC50 data for 20 compounds are collected here from ChEMBL document CHEMBL5608257, “Structure-Based Optimization of a Series of Covalent, Cell Active Bfl-1 Inhibitors” (J Med Chem, 2024).

Assay [1] has as its target T1, Bcl-2-related protein A1 (Homo sapiens, UniProt Q16548).
T1 sequence (Q16548 whole entry): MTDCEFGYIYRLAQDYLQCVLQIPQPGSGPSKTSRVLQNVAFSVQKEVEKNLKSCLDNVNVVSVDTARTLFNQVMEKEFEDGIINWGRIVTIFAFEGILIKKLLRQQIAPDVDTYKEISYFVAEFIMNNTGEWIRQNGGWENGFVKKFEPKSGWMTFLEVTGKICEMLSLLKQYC
The experiment in a line: Inhibition of N-terminal His6-tagged recombinant Bfl-1 (1 to 151 residues)(unknown origin) extracted from Escherichia coli BL21-Gold (DE3) using HyLite Fluor 647-labeled Bim peptide as substrate incubated for 120 mins by TR-FRET assay. (TR-FRET usually uses a lanthanide donor and a delayed reading to cut background.)

For assay [2], the target named is T1, Bcl-2-related protein A1. The experiment in a line: Inhibition of Bfl-1 in human SU-DHL-1 cells assessed as caspase-3/7 activation measured after 6 hrs by UPLC-MRM MS analysis. In kind it is cell-based.
Assay [3] addresses Induced myeloid leukemia cell differentiation protein Mcl-1 (Homo sapiens, UniProt Q07820). The experiment in a line: Inhibition of Mcl-1 (unknown origin).

Bounds are passed on as bounds.

For orientation: IC50 means the concentration that inhibits the measured activity by half. As usually defined, the EC50 is the concentration that produces a half-maximal response.

Sequence of Induced myeloid leukemia cell differentiation protein Mcl-1 (Q07820 whole entry): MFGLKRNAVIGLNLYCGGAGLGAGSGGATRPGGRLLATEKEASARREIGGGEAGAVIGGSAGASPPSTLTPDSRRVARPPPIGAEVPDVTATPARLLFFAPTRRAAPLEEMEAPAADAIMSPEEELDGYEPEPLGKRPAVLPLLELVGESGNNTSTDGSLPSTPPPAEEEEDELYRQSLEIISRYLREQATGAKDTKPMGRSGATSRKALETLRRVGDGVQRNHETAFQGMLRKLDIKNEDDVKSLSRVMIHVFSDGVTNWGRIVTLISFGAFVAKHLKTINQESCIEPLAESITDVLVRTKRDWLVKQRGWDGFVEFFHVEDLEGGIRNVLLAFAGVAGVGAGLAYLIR

For the compound `C=CC(=O)N(Cc1ccc(Cl)cc1)c1ccc(O[C@@H]2CC[C@@H](NC)C2)cc1` (racemic), the IC50 in assay [1] was determined as 380 nM.

Take `C=CC(=O)N(c1ccc(O[C@@H]2CC[C@@H](N)C2)cc1)[C@H](C)c1ccc(C(F)(F)F)c(C#N)c1`: the IC50 in assay [1] stood at 1600 nM. The EC50 in assay [2] was 6900 nM.

For the compound `C=CC(=O)N(Cc1ccc(Cl)cc1)c1ccc(O[C@@H]2CC[C@@H](NC(C)=O)C2)cc1` (racemic), in assay [1], the IC50 worked out at 460 nM.

Consider `C=CC(=O)N(Cc1ccc(Cl)cc1)c1ccc(F)cc1`, for which the IC50 in assay [1] is 5100 nM.

Take `C=CC(=O)N(Cc1ccc(Cl)cc1)c1ccc(O[C@@H]2CC[C@@H](N)C2)cc1`: the IC50 in assay [1] came out at 340 nM.

On to `C=CC(=O)N(Cc1ccc(Cl)cc1)c1ccc(O[C@H]2CC[C@@H](N)C2)cc1` (racemic), for which, in assay [1], the IC50 was determined as 42000 nM.

Take `C=CC(=O)N(Cc1ccc(Cl)cc1)c1ccc(O[C@H]2CC[C@H](N)C2)cc1`: in assay [1], the IC50 amounted to 5100 nM.

For `C=CC(=O)N(Cc1ccc(Cl)cc1)c1ccc(OC)cc1`, the IC50 in assay [1] was determined as 9800 nM.

Consider `C=CC(=O)N(Cc1ccc(OC)cc1)c1ccccc1`, for which, in assay [1], the IC50 is > 100000 nM.

`C=CC(=O)N(Cc1ccc(C(F)(F)F)cc1)c1ccc(O[C@@H]2CC[C@@H](N)C2)cc1` (racemic): the half-inhibitory concentration (IC50) in assay [1] is 720 nM. The EC50 in assay [2] came to 2600 nM.

For `C=CC(=O)N(Cc1ccc(Cl)cc1)c1ccc(O[C@@H]2CC[C@@H](N(C)C)C2)cc1` (racemic), in assay [1], the IC50 amounted to 440 nM.

For `C=CC(=O)N(c1ccc(O[C@@H]2CC[C@@H](N)C2)cc1)[C@@H](C)c1ccc(C(F)(F)F)c(C#N)c1`, the IC50 in assay [1] is 22 nM; in assay [3], > 100000 nM. Moreover, in assay [2], the EC50 came to 370 nM.

Regarding `C=CC(=O)N(Cc1ccc(Cl)cc1)c1ccc(O[C@@H]2CC[C@@H](N(C)C(C)=O)C2)cc1` (racemic), the IC50 in assay [1] stood at 22000 nM.

Turning to `C=CC(=O)N(Cc1ccc(C#N)c(Cl)c1)c1ccc(O[C@@H]2CC[C@@H](N)C2)cc1` (racemic), the IC50 in assay [1] worked out at 550 nM.

Consider `C=CC(=O)N(Cc1ccc(Cl)c(C#N)c1)c1ccc(O[C@@H]2CC[C@@H](N)C2)cc1` (racemic), for which the IC50 in assay [1] is 350 nM. Besides, the EC50 in assay [2] came to 3700 nM.

Take `C=CC(=O)N(Cc1ccc(OC)cc1)c1ccc(Cl)cc1`: the IC50 in assay [1] was determined as 19000 nM.

Regarding `C=CC(=O)N(Cc1ccc(Cl)cc1)c1ccc(O[C@@H]2CC[C@@H](NC(=O)NC)C2)cc1` (racemic), in assay [1], the 50% inhibitory concentration (IC50) was determined as 360 nM.

Consider `C=CC(=O)N(Cc1ccc(Cl)cc1)c1ccc(O[C@@H]2CC[C@@H](N)C2)cc1` (racemic), for which the IC50 in assay [1] is 450 nM. In assay [2], the EC50 is 7400 nM.

As for `C=CC(=O)N(Cc1ccc(OC)cc1)c1ccccc1Cl`, the IC50 in assay [1] was found to be 29000 nM.

Consider `C=CC(=O)N(Cc1ccc(C(F)(F)F)c(C#N)c1)c1ccc(O[C@@H]2CC[C@@H](N)C2)cc1` (racemic), for which, in assay [1], the IC50 came out at 300 nM. Besides, the EC50 in assay [2] is 1800 nM.
